Patent publication US20090017105A1, “PROLIPOSOMAL AND LIPOSOMAL COMPOSITIONS OF POORLY WATER SOLUBLE DRUGS” (priority 2007, published 2009)
Counter-ions that a name gives are not always drawn. Like-named read-outs stand apart in the source and are kept apart here.

What was measured:
[1] = cited from earlier work; for entrapment in the liposomes: Mayhew et al., U.S. Pat. No. 5,939,567 and 6,118,011
[2] = Durr et al., U.S. Pat. No. 5,670,536; cited from earlier work
PAI = experiment: In vitro cytotoxicity, 72 hour MIT assay; format: cell-based; settings: Homo sapiens, Ovary
Text: (§1) The cytotoxicity of the Liposomal composition of Docetaxel (hereinafter referred to as “LD”) in vitro in a panel of human cancer cell lines, expected to be sensitive to Docetaxel and the effects were compared with the conventional, approved, marketed composition of Docetaxel, viz. Taxotere® (hereinafter referred to as “CD”). A solution of bulk Docetaxel in DMSO was taken as a positive control for the studies.

MDA MB 453 = experiment: In vitro cytotoxicity, 72 hour MIT assay; format: cell-based; settings: Homo sapiens; Breast, MDA MB 453, 72 hour
Text: as §1

DU145 = experiment: In vitro cytotoxicity, 72 hour MIT assay; format: cell-based; settings: Homo sapiens, DU-145; Prostrate, DU145, 72 hour
Text: as §1

SKOV3 = experiment: In vitro cytotoxicity, 72 hour MIT assay; format: cell-based; settings: Homo sapiens, SK-OV-3; Ovary, SKOV3, 72 hour
Text: as §1

[3] = cited from earlier work
[4] = Ogawa et al., U.S. Pat. No. 5,094,854, cited from earlier work
[5] = liposome system of Hager et al.

For Quinoline yellow, the liposome-bound active principle [1, 5] is given as 1.38 mg/mL and the non-liposomal-bound active principle [1, 5] is given as “about 3.2 mg/ml”.
In the case of CCCCCC(=O)OC(C(=O)OC1CC2(O)C(OC(=O)c3ccccc3)C3C4(OC(C)=O)COC4CC(O)C3(C)C(=O)C(OC(C)=O)C(=C1C)C2(C)C)C(NC(=O)c1ccccc1)c1ccccc1 (stereo not shown) [2′-caproyl Paclitaxel], the “entrapment in the liposomes” value [1] is given as “about 70%”.
In the case of CC(=O)O[C@@]12CO[C@@H]1C[C@H](O)[C@@]1(C)C(=O)[C@H](O)C3=C(C)[C@@H](OC(=O)[C@H](O)[C@@H](NC(=O)OC(C)(C)C)c4ccccc4)C[C@@](O)([C@@H](OC(=O)c4ccccc4)[C@H]21)C3(C)C [Docetaxel Solution in DMSO, Docetaxel], the particle diameter [2] is listed as 47 to 71 nm, the IC50 (PAI) is listed as < 0.01 nM and the IC50 (MDA MB 453) is listed as 15.1 ± 2.3 nM. For the same compound, the IC50 (DU145) was 5.13 ± 1.28 nM, the IC50 (SKOV3) was 9.87 ± 2.74 nM and the “period for which liposomal compositions remain clear” value ([3]; Durr et al., U.S. Pat. No. 5,670,536, 20° C.) was “more than eight weeks”.
In the case of CCCCCC(=O)OC1CC2OCC2(OC(C)=O)C2C(OC(=O)c3ccccc3)C3(O)CC(OC(=O)C(O)C(NC(=O)c4ccccc4)c4ccccc4)C(C)=C(C(OC(C)=O)C(=O)C12C)C3(C)C (stereo not shown) [7-caproyl Paclitaxel], the “entrapment in the liposomes” value [1] is listed as “about 90%”.
For COc1cccc2c1C(=O)c1c(O)c3c(c(O)c1C2=O)C[C@@](O)(C(=O)CO)C[C@@H]3O[C@H]1C[C@H](N)[C@H](O)[C@H](C)O1 [Doxorubicin], the “drug entrapment in the liposomes” value ([1]; liposomes of Barenholz et al., U.S. Pat. No. 4,797,285 and 4,898,735) is given as 85-90%, the “entrapment of the drug” value ([1]; thermosensitive liposomes of Needham et al., U.S. Pat. No. 6,200,598 and 6,726,925 B1) is given as “not more than 80%” and the drop in potency ([3]; lyophilized liposomal composition of Huang et al., WO 92/02208, in two weeks) is given as 10-15%.
For N.N.[Cl][Pt][Cl] [Cisplatin], the “rate of release of the drug” value ([4]; 39° C.) is listed as “hardly anything” and the “rate of release of the drug” value ([4]; 42° C.) is listed as 30 to 95%.
In the case of COc1cccc2c1C(=O)c1c(O)c3c(c(O)c1C2=O)C[C@@](O)(C(=O)CO)C[C@@H]3O[C@H]1C[C@H](N)[C@H](O)[C@H](C)O1 [Doxorubicin hydrochloride], the encapsulation ([1]; liposome system of Hager et al., U.S. Pat. No. 5,556,637 and 5,741,517) is given as 78%.
